Results on one compound are retold here after patent US12390402B2, “High-content and sustained-release retinoid capsule, and composition for reducing wrinkles, containing same” (LG HOUSEHOLD & HEALTH CARE LTD., priority 2018, dated 2025).

The nature of the data set: Solubility of retinoic acid in the liquid lipid. The class given is physicochemical. On the procedure:
FIG. 2 is the result of the solubility in oil according to the binding of an amine compound and retinoid.
As shown in the Table 2, the maximum concentration of the retinoic acid soluble in the liquid lipid was 0.1% of the weight of the liquid lipid, and when added more the above, the retinoic acid was not dissolved, making it impossible to synthesize capsules (Comparative examples 1, 2, 3). On the other hand, it was determined that the solubility of retinoic acid was increased over 10% of the weight of the liquid lipid, when the amine compound at the same mole concentration as retinoic acid was added during dissolving retinoic acid in the liquid lipid (See Table 2). Through this, the dry weight of the retinoid in the final capsule after washing could be increased 100 times from conventional 0.03% to 3%.

As to `CC1=C(/C=C/C(C)=C/C=C/C(C)=C/C(=O)O)C(C)(C)CCC1` [retinoic acid], where the note is “amine compound added at the same mole concentration as retinoic acid”, the “solubility of retinoic acid in the liquid lipid” value is given as “over 10 % of the weight of the liquid lipid”. In addition, the “maximum concentration of the retinoic acid soluble in the liquid lipid” value (without amine compound, caprylic/capryl triglyceride) is 0.1 % of the weight of the liquid lipid.
